One test has as its system Plasmodium falciparum. Kind of test: […] activity against Plasmodium falciparum assessed as reduction in microbial growth. Type of test: functional.
The subject of another test is CCF-STTG1. Kind of test: Antiproliferative activity against human CCF-STTG1 cells assessed as reduction in cell growth. Type of test: functional, cell-based.
A short description of test [1]: Binding affinity to SPT (unknown origin) assessed as inhibition constant. More on the design: species or system Homo sapiens.

Consider `CCCCCCCCCCCCOC(=O)[C@@H](N)CC(C)C`, for which the MIC (usually the lowest concentration that inhibits growth of the organism) in the test with Plasmodium falciparum came to 0.78 µg/mL.
With `C/C(=C\CC12OC(C)(C)C3CC(C=C4C(=O)c5c(O)cccc5OC431)C2=O)COC(=O)c1cccnc1` (stereo not drawn), in the test with CCF-STTG1, the IC50 (as a rule, the concentration needed to halve the response being measured) was found to be 2290 nM. Moreover, the Ki (usually the equilibrium dissociation constant of an inhibitor or competing ligand from its target) in test [1] is 1700 nM.

Values taken from ChEMBL document CHEMBL5523703, “Modulators for palmitoylation of proteins and small molecules” (Eur J Med Chem, 2024).
